Test results: patent US3994910A, “Derivatives of 1,2-diphenyl-3,5-dioxo-4-N-butyl-pyrazolidine and process for making same” (Antonia Gallardo, S.A., priority 1973, dated 1976)
“Also recorded” adds a separate entry of the source. Where a name gives a salt, the structure may show the parent alone. Read-outs that look alike come from different tables or passages of the source.

What was measured:
[1] = system: rat
[2] = in vivo; details: rat, po
[3] = system: rat stomach; details: in vivo
[4] = system: contortions induced by acetic acid in mice; experiment: Inhibition of contortions induced by acetic acid injected into the abdominal cavity of the mouse; assay type: in vivo
[5] = system: carrageenin-induced oedema in the rat's paw; experiment: Inhibition of carrageenin-induced oedema in rat's paw; details: for % Inhibition ± standard error (paw oedema): 3 hours after carrageenin; for Volume of paw (ml) ± standard error: measured 3 hours after carrageenin
[6] = system: humans with reumatic diseases; experiment: Treatment of humans with reumatic diseases / polyarthritics; assay type: in vivo, human
Description: In general, the new therapeutic compounds can be used to treat the same disorders as phenylbutazone. […] These therapeutic compounds have been found effective in treating humans as well as animals.

[7] = system: rat stomach; experiment: Ulcerogenic activity on the stomach; details: compared with phenylbutazone
[8] = system: granuloma induced in rats by implantation of cotton balls; experiment: Granuloma induced in rats by implantation of cotton balls; assay type: in vivo, rat; details: for Dry granuloma ± standard error: net weight, (mg) printed in adjoining wet weight head; for Weight of wet granuloma: net weight ± standard error
Description: The figures refer to the net weight of granuloma tissue obtained by subtracting the original weight of the cotton ball.

[9] = background knowledge; cited from earlier work
[10] = 30 mg/kg per os 1 h before acetic acid injection
[11] = 100 mg/kg per os 1 h before acetic acid injection
[12] = 300 mg/kg per os 1 h before acetic acid injection
[13] = 25 mg/kg per os 1 h before carrageenin
[14] = 50 mg/kg per os 1 h before carrageenin
[15] = 100 mg/kg per os 1 h before carrageenin
[16] = 200 mg/kg per os 1 h before carrageenin
[17] = high doses (200 mg/kg), both products compared
[18] = lower dose levels (100 and 50 mg/kg)

Compound	UG: Intensity of ulceration produced in the rat stomach [3]	No. of contortions ± standard error [4, 10]	% inhibition ± standard error (contortions) [4, 11]	No. of contortions ± standard error [4, 11]	No. of contortions ± standard error [4, 12]	Volume of paw (ml) ± standard error [5, 13]	% Inhibition ± standard error (paw oedema) [5, 14]	Volume of paw (ml) ± standard error [5, 14]	% Inhibition ± standard error (paw oedema) [5, 15]	Volume of paw (ml) ± standard error [5, 15]	% Inhibition ± standard error (paw oedema) [5, 16]	Volume of paw (ml) ± standard error [5, 16]	ulcerogenic indices ± standard error ([3]; 50 mg/kg)	ulcerogenic indices ± standard error ([3]; 100 mg/kg)	ulcerogenic indices ± standard error ([3]; 200 mg/kg)	Percentage inhibition Dry granuloma ([8]; 50 mg/Kg/day per os)	Percentage inhibition Wet granuloma ([8]; 50 mg/Kg/day per os)	Dry granuloma ± standard error ([8]; 50 mg/Kg/day per os)	Percentage inhibition Dry granuloma ([8]; 100 mg/Kg/day per os)	Percentage inhibition Wet granuloma ([8]; 100 mg/Kg/day per os)	also measured
NC1=NCCS1 [2-amino-thiazoline, 2-amino-2-thiazoline]																					No. deaths ([1]; 316 mg/kg per os): 2; No. deaths ([1]; 383 mg/kg per os): 4; No. deaths ([1]; 464 mg/kg per os): 6; No. deaths ([1]; 562 mg/kg per os): 7; No. deaths ([1]; 681 mg/kg per os): 9; No. deaths ([1]; 825 mg/kg per os): 9; LD50 [2]: 430 mg/kg; mortality ([2]; 316 mg/kg): 20%; mortality ([2]; 383 mg/kg): 40%; mortality ([2]; 464 mg/kg): 60%; mortality ([2]; 562 mg/kg): 70%; mortality ([2]; 681 mg/kg): 90%; mortality ([2]; 825 mg/kg): 90%
CCCCC1C(=O)N(c2ccccc2)N(c2ccccc2)C1=O [LAS 6671, 1,2-diphenyl-3,5-dioxo-4-n-butylpyrazolidine-2-amino-4-methyl-pyridine]	+																				
CCCCC1C(=O)N(c2ccccc2)N(c2ccccc2)C1=O [LAS 11871, 1,2-diphenyl-3,5-dioxo-4-n-butylpyrazolidine-2-amino-2-thiazoline]	+	44.20 ± 6.03	54.90 ± 7.76%	36.90 ± 6.34	24.10 ± 3.74	0.7864 ± 0.0632 mL	36.01 ± 7.06%	0.6182 ± 0.0683 mL	72.40 ± 4.43%	0.2667 ± 0.0428 mL	84.00 ± 3.97%	0.1545 ± 0.0384 mL	0.59 ± 0.19	2.43 ± 0.41	3.65 ± 0.56	20.00%	14.40 ± 1.90%	61.82 ± 3.16 mg	19.90 ± 6.10%	18.60 ± 3.70%	% inhibition ± standard error (contortions) [4, 12]: 70.50 ± 4.60%; analgesic activity compared with phenylbutazone ([4]; mouse, in vivo): more potent than phenylbutazone as an analgesic; also recorded: more active as an analgesic and anti-inflammatory agent than phenylbutazone; % Inhibition ± standard error (paw oedema) [5, 13]: 18.60 ± 6.54%; activity against inflammation compared with phenylbutazone ([5]; Table 2, at doses of 50 mg/kg and above): the more active compound; activity against inflammation compared with phenylbutazone ([5]; Table 2, overall): at least as active as phenylbutazone against inflammation; anti-inflammatory activity compared with phenylbutazone ([5]; general statement): more active as an analgesic and anti-inflammatory agent than phenylbutazone; treatment of polyarthritics ([6]; 200 mg two, or three times per day): successfully treat polyarthritics; treatment of humans with reumatic diseases ([6]; humans): effective in the treatment of humans with reumatic diseases; ulcerogenic activity / gastric lesions [7]: much less active in this respect than phenylbutazone; also recorded: produces fewer gastric lesions; Dry granuloma ± standard error ([8]; 100 mg/Kg/day per os): 61.95 ± 4.74 mg; Percentage inhibition Dry granuloma ([8]; 200 mg/Kg/day per os): 37.60 ± 2.50%; Percentage inhibition Wet granuloma ([8]; 200 mg/Kg/day per os): 20.50 ± 2.80%; Dry granuloma ± standard error ([8]; 200 mg/Kg/day per os): 48.29 ± 1.98 mg; inhibition of granuloma tissue formation [8, 17]: about the same degree of inhibition of granuloma tissue formation; inhibition of granuloma tissue formation [8, 18]: continued to inhibit the granuloma tissue formation
CCCCC1C(=O)N(c2ccccc2)N(c2ccccc2)C1=O [Phenylbutazone, 4-n-butyl-1,2-diphenyl-3,5-pyrazolidinedione]	++	59.00 ± 6.51	42.10 ± 8.20%	47.30 ± 6.70	42.30 ± 6.75	0.6545 ± 0.0545 mL	28.70 ± 7.24%	0.6886 ± 0.0699 mL	67.50 ± 2.30%	0.3139 ± 0.0224 mL	74.60 ± 4.70%	0.2458 ± 0.0454 mL	0.73 ± 0.21	4.33 ± 0.47	5.00 ± 0.56	8.50 ± 10.6%	4.30 ± 4.10%	83.94 ± 8.22 mg	7.90 ± 6.70%	6.50 ± 2.90%	% inhibition ± standard error (contortions) [4, 10]: 27.70 ± 7.97%; LD50 per os in the rat (only range in parentheses printed) ([1]; per os, doses in mg/kg, no central value printed): 530 - 725; most frequent serious toxic effects [9]: ulcerogenesis and fluid retention; Weight of wet granuloma ([8]; 50 mg/Kg/day per os): 434.75 ± 18.36 mg; Weight of wet granuloma ([8]; 100 mg/Kg/day per os): 424.50 ± 13.47 mg; Dry granuloma ± standard error ([8]; 100 mg/Kg/day per os): 71.23 ± 5.18 mg; Percentage inhibition Dry granuloma ([8]; 200 mg/Kg/day per os): 35.40 ± 5.50%; Percentage inhibition Wet granuloma ([8]; 200 mg/Kg/day per os): 22.20 ± 2.80%; Weight of wet granuloma ([8]; 200 mg/Kg/day per os): 353.40 ± 13.14 mg; Dry granuloma ± standard error ([8]; 200 mg/Kg/day per os): 49.96 ± 4.25 mg; inhibition of granuloma tissue formation [8, 17]: about the same degree of inhibition of granuloma tissue formation; inhibition of granuloma tissue formation [8, 18]: did not
CCCCC1C(=O)N(c2ccccc2)N(c2ccccc2)C1=O [Piperazine salt of Phenylbutazone]	+																				
